# According to paper PMC7290078, “Agonist bias and agonist‐dependent antagonism at corticotrophin releasing factor receptors” (Pharmacology Research & Perspectives, 2020):
# pEC50: −log10 of the molar value. No end group written: not given here.
# Assays:
# CRF1 receptor (hCRF1α) [1] = target: T1, CRF1 receptor (hCRF1α) (Homo sapiens, UniProt P34998); experiment: cAMP accumulation (LANCE) in Cos7 cells transfected with hCRF1α, agonist stimulation; assay type: cell-based
# T1 construct: host or cells: Cos7 cells, transient transfection (PEI), pcDNA3.0/3.1 vector
# T1 sequence (P34998 24-415): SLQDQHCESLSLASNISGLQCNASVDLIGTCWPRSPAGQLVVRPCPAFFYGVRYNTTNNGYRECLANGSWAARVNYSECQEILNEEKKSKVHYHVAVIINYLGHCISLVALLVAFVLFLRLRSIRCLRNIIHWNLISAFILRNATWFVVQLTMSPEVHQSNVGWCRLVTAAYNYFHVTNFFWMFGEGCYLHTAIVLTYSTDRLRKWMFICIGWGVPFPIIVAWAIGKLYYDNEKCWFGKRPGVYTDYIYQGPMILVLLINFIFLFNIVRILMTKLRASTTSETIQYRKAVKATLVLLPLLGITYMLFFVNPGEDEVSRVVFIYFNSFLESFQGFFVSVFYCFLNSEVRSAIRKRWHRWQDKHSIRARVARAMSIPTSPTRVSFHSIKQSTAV
# Source text: (§1) Plasmids containing hCRF1α and hCRF2α (GenBank accession numbers AY457172 and AY449734) were obtained from the cDNA Resource Centre (Bloomsburg University) and are referred to as CRF1 and CRF2 in this manuscript. Hemagglutinin (HA) epitope‐tagged human Calcitonin (CT) receptor (CT(a) splice variant) and myc‐tagged human RAMP1 were used as described previously. ^27 HA‐tagged human calcitonin receptor‐like receptor (CLR), N‐terminal FLAG‐tagged human RAMP3 and N‐terminal myc‐tagged human RAMP3 were a gift from Professor David Poyner (Aston University) and Professor Patrick Sexton (Monash University), respectively. N‐terminal FLAG‐tagged human RAMP2 was used as described previously. ^28 All receptors and RAMPs were cloned in pcDNA3.0 or pcDNA3.1 plasmid vectors. All plasmid inserts were sequenced at the Centre for Genomics, Proteomics and Metabolomics (University of Auckland) and the sequences were verified prior to use.
# Cos7, HEK‐293S, and HEK‐293T cells were cultured as described previously. ^28 , ^29 Cos7 cells were originally supplied by the ATCC to Associate Professor Nigel Birch (University of Auckland). HEK‐293S cells were a gift from Professor David Poyner (Aston University) and HEK‐293T cells a gift from Professor John Taylor (University of Auckland). Briefly, all cell lines were cultured in Dulbecco's Modified Eagle Medium (DMEM) supplemented with 8% heat inactivated fetal bovine serum (FBS) and maintained in a humidified incubator at 37°C with 5% CO2. For transfection, cells were counted (Countess CounterTM; Life Technologies) and plated at a density of 20 000 cells per well in 96‐well plates. The cells were transiently transfected 48 hours prior to assaying using polyethylenimine (PEI), as described previously. ^28 , ^29 In all experiments a total of 0.25 μg DNA was transfected per well. In the majority of experiments 0.25 μg DNA of receptor‐containing plasmid or the pcDNA3.1 plasmid without an insert was used. For experiments involving RAMPs, 0.125 μg of receptor DNA and 0.125 μg of RAMP‐containing plasmid DNA were transfected to give a 1:1 ratio of receptor to RAMP. […]
# cAMP accumulation in Cos7 cells transfected with hCRF1α or hCRF2α receptors was measured using the LANCE cAMP detection assay kit (PerkinElmer Life and Analytical Sciences) as described previously. ^30 Briefly, culture media was removed and replaced with DMEM containing 0.1% bovine albumin serum (BSA) and 1 mmol/L 3‐isobutyl‐1‐methylxanthine (IBMX) for 30 minutes at 37°C. […] Samples were shaken for 15 minutes before 5 µL cell lysate was transferred to a white 384‐well optiplate and processed for cAMP quantification as described previously. ^31 Samples were read using an Envision plate reader (PerkinElmer). cAMP concentrations were determined from a standard curve generated in duplicate. […]
# CRF1 receptor (hCRF1α) [2] = target: T1, CRF1 receptor (hCRF1α); experiment: ERK1/2 phosphorylation (AlphaLISA Surefire Ultra) in Cos7 cells transfected with hCRF1α; assay type: cell-based
# Source text: as §1, with “All plasmid inserts were sequenced at the Centre for Genomics, Proteomics and Metabolomics (University of Auckland) and the sequences were verified prior to use.” left out
# Cos7, HEK‐293S, and HEK‐293T cells were cultured as described previously. ^28 , ^29 Cos7 cells were originally supplied by the ATCC to Associate Professor Nigel Birch (University of Auckland). […] For transfection, cells were counted (Countess CounterTM; Life Technologies) and plated at a density of 20 000 cells per well in 96‐well plates. […]
# The AlphaLISA Surefire Ultra extracellular signal‐regulated kinase 1/2 (ERK1/2) phosphorylation (pERK1/2) assay kit (PerkinElmer Life and Analytical Sciences) was used to measure pERK1/2 in cell lysates after agonist stimulation. […] Samples were read using an Envision plate reader (PerkinElmer). […]
"pEC50 (CRF1 receptor (hCRF1α) [1]; cAMP, hCRF1α, Cos7, 15 min at 37°C, 1 mmol/L IBMX, 1 pmol/L to 1 µmol/L agonist, mean ± SEM, n = 5)","pEC50 (CRF1 receptor (hCRF1α) [2]; pERK1/2, hCRF1α, Cos7, 7 min at 37°C, 1 pmol/L to 1 µmol/L agonist, mean ± SEM, n = 5)",Substance,concentration‐dependent increase in cAMP (CRF1 receptor (hCRF1α) [1]; CRF1 receptor),concentration‐dependent increase in pERK1/2 (CRF1 receptor (hCRF1α) [2]; CRF1 receptor)
9.97,7.64,DNPSLSIDLTFHLLRTLLELARTQSQRERAEQNRIIFDSV-NH2 [UCN1],–,–
–,–,IVLSLDVPIGLLQILLEQARARAAREQATTNARILARVGHC-NH2 (C-terminus assumed) [UCN2],not UCN2 and UCN3 exhibited a concentration‐dependent increase,not UCN2 and UCN3 exhibited a concentration‐dependent increase
